For one assay, the target named is β amyloid (Homo sapiens, UniProt P05067). Kind of assay: β-amyloid aggregation ELISA protocol (Howlett et al.). Type of assay: biochemical. As to conditions: Aβ incubated overnight, 6E10 antibody. Here is the method: For the β-amyloid aggregation ELISA protocol (Howlett et al., supra), 96 uL diluted β amyloid solution (51 μg/ml) is added to a 96-well polystyrene plate in the presence of and absence of 2 μL of an aggregation inhibitor test compound diluted in DMSO. The Aβ is incubated overnight to allow for aggregation and an aliquot transferred to another 96-well polystyrene plate, precoated with anti-Aβ antibody (6E10, Senetek, Napa, Calif.) overnight, washed, and blocked with Dulbecco's PBS/1% BSA solution. […] The secondary, biotinylated antibody was bound with 200 μL Eu^3+-streptavidin (100 ng/ml) in DELFIA assay buffer, the excess washed off, and the plate developed in DELFIA enhancement solution and read on a TRF plate reader as outlined above.
Chain of β amyloid (P05067 672-711 limits assumed): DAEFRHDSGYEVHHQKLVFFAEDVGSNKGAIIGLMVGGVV

For another assay, the target named is T1, β-amyloid 1-40 (Homo sapiens, UniProt P05067).
T1 construct: Beta-amyloid 1-40 (Aβ) and biotin-labeled β-amyloid 1-40 peptides were purchased from Biosource; purchased Biosource (Camarillo, Calif.)
T1 sequence (P05067 672-711 limits assumed): as above
Put plainly: TRF aggregation assay for β-amyloid polypeptide aggregation. It counts as biochemical. As to conditions: 50 ug/ml β-amyloid, 24 uM test compound, 2% DMSO, 37° C. for 24 hrs.

Method for β-amyloid 1-40: Beta-amyloid 1-40 (Aβ) and biotin-labeled β-amyloid 1-40 peptides were purchased from Biosource (Camarillo, Calif.). β-amyloid and biotinylated amyloid stock solutions, diluted in 0.1% acetic acid and corrected for 80% peptide content, were diluted to 83 μg/ml and 42 μg/ml, respectively, in reaction buffer (Dulbecco's PBS pH 7.4, 0.02% Tween 20). An equal mixture of the two β-amyloid products was then brought to a final concentration of 62.5 μg/ml total β-amyloid, giving a final 2:1 ratio of unbiotinylated to biotinylated Aβ polypeptide. When analyzing aggregation in the presence of test compound, 5 ul of diluted test compound (120 uM in 10% DMSO) was added to each well being analyzed in a 384-well polystyrene plate (Nunc). Test compounds are added over a range of concentrations. Twenty microliters of the β-amyloid reaction mixture was dispensed into each well of the 384 well plate, giving the final assay conditions as 24 uM test compound, 2% DMSO, and 50 ug/ml β-amyloid in a final volume of 25 uL. Plates were then sealed with foil sealers (Corning), and incubated at 37° C. for 24 hrs. […] Plates were washed with reaction buffer and 75 uL of DELFIA Enhancement solution (Wallac) was added to each well and the plates read on TRF capable plate reader (excitation at 337 run and emission at 620 nm).

Regarding `CO[C@H]1/C=C/O[C@@]2(C)Oc3c(C)c(O)c4c(O)c(c(/C=N/N5CCN(C)CC5)c(O)c4c3C2=O)NC(=O)/C(C)=C\C=C\[C@H](C)[C@H](O)[C@@H](C)[C@@H](O)[C@@H](C)[C@H](OC(C)=O)[C@@H]1C` [rifampicin], the “inhibition of Aβ aggregation” value against β amyloid was about 30%.

On to QKLVFF [QKLVFF peptide], for which the “prevents Aβ aggregation” value with β-amyloid 1-40 is 44%.

The values are drawn from US6846640B2, “Time-resolved fluorescence assay for the detection of multimeric forms of A-beta 1-40” (Pharmacia & Upjohn Company, priority 2002, dated 2005).
